Data taken from US9951064B2, “Azaindazole compounds as inhibitors of T790M containing EGFR mutants” (Genentech, Inc., priority 2013, dated 2018).

Experiments:
[1] = biological target: T1, EGFR T790M L858R (Homo sapiens, UniProt P00533, L858R/T790M); experiment: EGFR T790M L858R biochemical assay (Caliper mobility shift); details: 5 μM ATP; apparent Ki (Morrison fit) converted by Cheng-Prusoff, Km of ATP 1.3 μM
T1 construct: purchased Life Technologies PV4879
Outline: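 Reactions run 30 minutes at room temperature (22 °C), stopped with 80 mM EDTA. Phosphorylated product and substrate separated electrophoretically and quantified by Caliper mobility shift.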

[2] = biological target: T2, EGFR del746-750 T790M (Homo sapiens, UniProt P00533, DEL746-750/T790M); experiment: EGFR del746-750 T790M biochemical assay (Caliper mobility shift); details: 5 μM ATP; apparent Ki (Morrison fit) converted by Cheng-Prusoff, Km of ATP 2.1 μM; read-out: EGFR(T790M/d746-750) Ki
T2 construct: purchased Carna Biosciences 08-528
Outline: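 Kinase reactions ran 30 min at room temperature (22 °C), then were stopped with 80 mM EDTA. Phosphorylated product and substrate were separated electrophoretically and quantified by Caliper mobility shift.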

[3] = tested on: H1975 (EGFR T790M/L858R) cell proliferation; experiment: H1975 proliferation assay (Cell Titer-Glo); format: cell-based; details: Homo sapiens, NCI-H1975, 72 h, NCI-H1975 cells, 72 hour incubation, read-out: H1975 antiproliferative EC50
Method: H1975 Proliferation Assays
All cell culture reagents were purchased from Invitrogen/Gibco. Cells are cultured at 37° C. at 5% CO2 and split as recommended by ATCC.

[4] = biological target: T3, phosphor-EGFR in H1975(L585R/T790M) mutant EGFR expressing cells (Homo sapiens, UniProt P00533, L858R/T790M); experiment: H1975 pEGFR MSD cellular assay; format: cell-based; details: NCI-H1975 cells, serum starved, 1 hour compound incubation, pEGFR Tyr1068 MSD; read-out: HI975 pEGFR EC50
T3 construct: host or cells: NCI-H1975
Outline: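 NCI-H1975 cells, 30,000/well, serum-starved overnight, then treated 1 hour at 37° C with serially diluted compounds in serum-free medium (0.5% DMSO). Lysates captured on anti-phospho-EGFR plates overnight at 4° C, detected with SULFO-TAG anti-total EGFR by electrochemiluminescence. Inhibition vs untreated controls; EC50 from 4-parameter logistic fit.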

T1 sequence (P00533 25-1210 T790M/L858R): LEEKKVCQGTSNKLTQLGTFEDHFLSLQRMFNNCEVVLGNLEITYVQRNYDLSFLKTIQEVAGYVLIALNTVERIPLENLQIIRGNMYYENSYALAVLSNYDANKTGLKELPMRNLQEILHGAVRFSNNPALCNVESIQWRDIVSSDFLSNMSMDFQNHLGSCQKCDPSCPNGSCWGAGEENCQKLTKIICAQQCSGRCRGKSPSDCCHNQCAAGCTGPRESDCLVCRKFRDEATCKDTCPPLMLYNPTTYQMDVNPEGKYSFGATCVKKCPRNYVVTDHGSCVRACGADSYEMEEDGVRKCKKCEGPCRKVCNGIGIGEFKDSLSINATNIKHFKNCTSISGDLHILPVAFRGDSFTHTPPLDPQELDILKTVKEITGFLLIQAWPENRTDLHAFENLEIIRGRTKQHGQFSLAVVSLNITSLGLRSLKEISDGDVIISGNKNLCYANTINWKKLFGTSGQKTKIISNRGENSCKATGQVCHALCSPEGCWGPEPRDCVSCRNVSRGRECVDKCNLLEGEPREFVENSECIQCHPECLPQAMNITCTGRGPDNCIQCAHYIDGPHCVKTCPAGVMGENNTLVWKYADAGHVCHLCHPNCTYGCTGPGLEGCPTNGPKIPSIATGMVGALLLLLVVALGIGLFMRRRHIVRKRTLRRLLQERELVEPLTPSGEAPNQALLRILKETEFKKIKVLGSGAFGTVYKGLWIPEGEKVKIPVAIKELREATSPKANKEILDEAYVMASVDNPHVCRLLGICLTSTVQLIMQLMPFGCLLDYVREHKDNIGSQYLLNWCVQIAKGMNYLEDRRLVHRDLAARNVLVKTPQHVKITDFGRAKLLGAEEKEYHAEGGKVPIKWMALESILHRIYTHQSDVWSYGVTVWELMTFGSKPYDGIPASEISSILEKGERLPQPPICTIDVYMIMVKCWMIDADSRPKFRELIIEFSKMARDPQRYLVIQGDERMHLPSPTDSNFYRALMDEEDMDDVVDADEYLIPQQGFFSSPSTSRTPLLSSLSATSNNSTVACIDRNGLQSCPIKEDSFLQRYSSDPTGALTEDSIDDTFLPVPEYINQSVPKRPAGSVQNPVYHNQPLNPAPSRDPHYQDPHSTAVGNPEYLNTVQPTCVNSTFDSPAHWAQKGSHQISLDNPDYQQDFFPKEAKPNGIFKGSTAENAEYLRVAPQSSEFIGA
T3 sequence (P00533 25-1210 T790M/L858R): as above
T2 sequence (P00533 with tags, fused parts or gaps DEL746-750/T790M limits assumed): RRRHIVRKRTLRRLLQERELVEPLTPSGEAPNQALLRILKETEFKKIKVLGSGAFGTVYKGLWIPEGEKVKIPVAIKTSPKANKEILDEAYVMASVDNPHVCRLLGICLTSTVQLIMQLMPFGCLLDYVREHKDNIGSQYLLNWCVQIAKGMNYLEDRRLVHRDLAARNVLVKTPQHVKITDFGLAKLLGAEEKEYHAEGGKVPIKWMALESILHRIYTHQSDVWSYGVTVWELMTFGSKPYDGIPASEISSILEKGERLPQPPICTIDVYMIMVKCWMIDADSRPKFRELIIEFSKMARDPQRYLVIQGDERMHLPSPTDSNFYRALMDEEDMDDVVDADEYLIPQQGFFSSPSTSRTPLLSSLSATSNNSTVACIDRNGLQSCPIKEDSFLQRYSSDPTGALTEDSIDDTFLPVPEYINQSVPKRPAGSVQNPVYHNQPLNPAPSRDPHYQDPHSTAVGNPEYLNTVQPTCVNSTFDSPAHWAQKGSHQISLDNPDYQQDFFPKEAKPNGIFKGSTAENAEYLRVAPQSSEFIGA

Structure (SMILES) | Ki [1] | Ki [2] | EC50 [3] | EC50 [4]
CC(C)n1nc(NCCS(C)(=N)=O)c2cnc(Nc3ccnc(-c4cnn(S(=O)(=O)C5CC5)c4)n3)cc21 (stereo not drawn) [Example 125, N^6-(2-(1-(Cyclopropylsulfonyl)-1H-pyrazol-4-yl)pyrimidin-4-yl)-1-isopropyl-N^3-(2-(S-methylsulfonimidoyl)ethyl)-1H-pyrazolo[4,3-c]pyridine-3.6-diamine] | 1.1 nM | 0.8 nM | > 10000 nM | 2840 nM
CC(C)n1nc(N2CC3(CN(CC(F)(F)F)C3)C2)c2cnc(Nc3ccnc(-c4cnn(S(=O)(=O)C5CC5)c4)n3)cc21 [Example 126, N-(2-(1-(Cyclopropylsulfonyl)-1H-pyrazol-4-yl)pyrimidin-4-yl)-1-isopropyl-3-(6-(2,2,2-trifluoroethyl)-2,6-diazaspiro[3.3]heptan-2-yl)-1H-pyrazolo[4,3-c]pyridin-6-amine] | 5.3 nM | 4.6 nM | 1140 nM | 80.1 nM
CC(C)n1nc(N2CCO[C@H](CO)C2)c2cnc(Nc3ccnc(N4CC[C@H](O)[C@H](F)C4)n3)cc21 [Example 132, cis-3-Fluoro-1-(4-(3-((S)-2-(hydroxymethyl)morpholino)-1-isopropyl-1H-pyrazolo[4,3-c]pyridin-6-ylamino)pyrimidin-2-yl)piperidin-4-ol] | 4.9 nM | 14.6 nM | > 10000 nM | 1430 nM
CC(C)n1nc(N2CC(C#N)CC2=O)c2cnc(Nc3ccnc(N4CCC(C)(O)CC4)n3)cc21 (stereo not drawn) [Example 137, 1-(6-(2-(4-Hydroxy-4-methylpiperidin-1-yl)pyrimidin-4-ylamino)-1-isopropyl-1H-pyrazolo[4,3-c]pyridin-3-yl)-5-oxopyrrolidine-3-carbonitrile] | 10.1 nM | 27 nM | 1100 nM | 715 nM
CC(C)n1nc(N2CC3(C2)C[S+]([O-])C3)c2cnc(Nc3ccnc(N4CCC(C)(O)CC4)n3)cc21 [Example 138, 6-(6-((2-(4-Hydroxy-4-methylpiperidin-1-yl)pyrimidin-4-yl)amino)-1-isopropyl-1H-pyrazolo[4,3-c]pyridin-3-yl)-2-thia-6-azaspiro[3.3]heptane 2-oxide] | 4.6 nM | 19.6 nM | 3910 nM | 1410 nM
CC(C)n1nc(NCCC2OCC(N)CO2)c2cnc(Nc3ccnc(N4CCC(C)(O)CC4)n3)cc21 (stereo not drawn) [Example 139, 1-(4-(3-(2-(5-Amino-1,3-dioxan-2-yl)ethylamino)-1-isopropyl-1H-pyrazol[4,3-c]pyridin-6-ylamino)pyrimidin-2-yl)-4-methylpiperidin-4-ol] | 7.1 nM | 18.3 nM | > 10000 nM | 6070 nM
CC(n1nc(N2CC[C@@H](O)C2)c2cnc(Nc3ccnc(N4CCC(C)(O)CC4)n3)cc21)C(F)(F)F (stereo partly drawn) [Example 143, 1-(4-(3-((R)-3-Hydroxypyrrolidin-1-yl)-1-(1,1,1-trifluoropropan-2-yl)-1H-pyrazolo[4,3-c]pyridin-6-ylamino)pyrimidin-2-yl)-4-methylpiperidin-4-ol] | 2.9 nM | 11.3 nM | 901 nM | 219 nM
CCC(C)n1nc(N2CC[C@H](C(N)=O)C2)c2cnc(Nc3ccnc(N4CCC(C)(O)CC4)n3)cc21 (stereo partly drawn) [Example 144, (3S)-1-(1-sec-Butyl-6-(2-(4-hydroxy-4-methylpiperidin-1-yl)pyrimidin-4-ylamino)-1H-pyrazolo[4,3-c]pyridin-3-yl)pyrrolidine-3-carboxamide] | 1.8 nM | 2.1 nM | 2200 nM | 941 nM
CCC(C)n1nc(N2CC[C@@H](C(N)=O)C2)c2cnc(Nc3ccnc(N4CCC(C)(O)CC4)n3)cc21 (stereo partly drawn) [Example 145, (3R)-1-(1-sec-Butyl-6-(2-(4-hydroxy-4-methylpiperidin-1-yl)pyrimidin-4-ylamino)-1H-pyrazolo[4,3-c]pyridin-3-yl)pyrrolidine-3-carboxamide] | 1.4 nM | 1.6 nM | 7170 nM | 921 nM
